Assay [1] has as its target T1, ϕDI Dut-Stl complex (Staphylococcus aureus, UniProt A0A2D0TC87).
T1 construct: His-tagged Dut and purified Stl, E. coli; 1:1 molar ratio of Dut and Stl; with SaPIbov1 master repressor Stl (Staphylococcus aureus pathogenicity island SaPIbov1)
The experiment in a line: Native-PAGE, disruption of Dut-Stl complex. Type of assay: binding. As to conditions: equimolar Dut and Stl; dUMP up to 1 mM.

The target in assay [2] is T2, ϕDI Dut (dimeric dUTPase) (Staphylococcus aureus, UniProt A0A2D0TC87).
T2 construct: His-tagged, pET-28a, E. coli BL21(DE3); homodimer; eight helices, residues 7-163 in helices
The experiment in a line: X-ray crystallography, […] Å. Type of assay: binding. To be noted: Mg2+; active site, two Mg2+ per nucleotide.

The target of assay [3] is T2, ϕDI Dut (dimeric dUTPase). The experiment in a line: isothermal titration calorimetry. In kind it is binding. To be noted: 50 mM HEPES pH 7.5, 250 mM NaCl, 5 mM MgCl2, 25°C; single-site model; read-out: dissociation constant. An excerpt:
isothermal titration calorimetry on ϕDI Dut (dimeric dUTPase) | used to calculate the dissociation constant of ϕDI and ϕDI^A73L Duts against dUPNPP
A general note: Isothermal titration calorimetry measures the heat released or taken up as one component is titrated into another.

The target of assay [4] is T1, ϕDI Dut-Stl complex. Nature of the assay: Native-PAGE, disruption of Dut-Stl complex. To be noted: equimolar Dut and Stl (17 μM); 4°C electrophoresis; competes with Stl binding to Dut. An excerpt: Native-PAGE, disruption of Dut-Stl complex on ϕDI Dut-Stl complex | competing away the dimeric ϕDI Dut from binding to the SaPI Stl repressor, with an IC50
Assay [5] relates to T3, ϕ55 Dut (dimeric dUTPase).
T3 construct: His-tagged, pET-28a, E. coli BL21(DE3)
The experiment in a line: Malachite Green phosphate assay. In kind it is biochemical, Staphylococcus phage 55. To be noted: 3-400 μM dUTP; 25°C; free Dut, no Stl; decimal comma (13.6). From the text:
Malachite Green phosphate assay on ϕ55 Dut (dimeric dUTPase)

The subject of assay [6] is T4, ϕO11 Dut (dimeric dUTPase).
T4 construct: His-tagged, pET-28a, E. coli BL21(DE3); not the trimeric Dut of phage ϕ11
The experiment in a line: Malachite Green phosphate assay. To be noted: 3-400 μM dUTP; 25°C; free Dut, no Stl; decimal comma (17.4). In kind it is biochemical, Staphylococcus phage phiO11. An excerpt:
Malachite Green phosphate assay on ϕO11 Dut (dimeric dUTPase)

The test system of assay [7] is T5, ϕDII Dut (dimeric dUTPase).
T5 construct: His-tagged, pET-28a, E. coli BL21(DE3)
The experiment in a line: Malachite Green phosphate assay. Type of assay: biochemical, Staphylococcus phage phiDII. To be noted: 3-400 μM dUTP; 25°C; free Dut, no Stl; decimal comma (11.1). An excerpt: Malachite Green phosphate assay on ϕDII Dut (dimeric dUTPase)

Assay [8] deals with T6, ϕNM1 Dut (dimeric dUTPase).
T6 construct: His-tagged, pET-28a, E. coli BL21(DE3)
Nature of the assay: Malachite Green phosphate assay. As to conditions: 3-400 μM dUTP; 25°C; free Dut, no Stl; decimal comma (17.5). In kind it is biochemical, Staphylococcus phage phiNM1. An excerpt:
Malachite Green phosphate assay on ϕNM1 Dut (dimeric dUTPase)

The target of assay [9] is SaPIbov1-encoded Stl repressor (Staphylococcus aureus (pathogenicity island SaPIbov1)). The experiment in a line: native gel or EMSA. (Mobility shift assays separate free from complexed probe on a gel.)

One may read the pIC50 as the IC50 on a negative log10 scale, so that one unit is a factor of ten. The low end stands for a large IC50, the high end for a small IC50. As usually defined, the Km is the substrate concentration at which the rate is half of its maximum.

pIC50, pKd: −log10 of the molar value.

In the case of `O=c1ccn([C@H]2C[C@H](O)[C@@H](COP(=O)(O)O)O2)c(=O)[nH]1` [dUMP], the “Native-PAGE, disruption of Dut-Stl complex” value at ϕDI Dut-Stl complex [1] was “only a weak reduction in ϕDI Dut-Stl binding was observed”.
On to `O=c1ccn([C@H]2C[C@H](O)[C@@H](COP(=O)(O)NP(=O)(O)OP(=O)(O)O)O2)c(=O)[nH]1` [dUPNPP, 2-Deoxyuridine-5-[(α,β)-imido]triphosphate], for which the “X-ray crystallography, 2.1 Å” value in [2] was “structure of the ϕDI Dut in complex with dUPNPP”. For the same compound, the pKd in assay [3] was 5.31. Further, the pIC50 on ϕDI Dut-Stl complex [4] was 4.86.
With `O=c1ccn([C@H]2C[C@H](O)[C@@H](COP(=O)(O)OP(=O)(O)OP(=O)(O)O)O2)c(=O)[nH]1` [dUTP], the Michaelis constant (Km) is 13.6 µM in assay [5], 17.4 µM in assay [6], 11.1 µM in assay [7] and 17.5 µM in [8].
In the case of “dimeric dUTPase (Dut) from S. aureus phage ϕDI (enzyme)”, the stoichiometry N (Dut:Stl molar ratio) in assay [9] was determined as 1.
On the same count and under the same terms, with “dimeric dUTPase (Dut) from S. aureus phage ϕO11 (enzyme)” the figure was 1.
